Assay results as given in patent publication US20220273658A1, “SMALL MOLECULE LIVER X RECEPTOR MODULATORS AND USES THEREOF” (University of Houston System, priority 2019, published 2022).

Key:
[1] = tested on: LXR-LBD; assay: differential scanning fluorimetry; assay type: binding
Source text: (§1) The synthesis and characterization of KD-01-39, a derivative of 3A4, have not been described previously.

[2] = tested on: HPNE cells; assay: growth of non-transformed pancreatic epithelial cells (WST screen; FIG. 32D); assay type: cell-based, human; settings: WST screen
Experimental: The initial identification and subsequent characterization of the two novel LXR ligands and their derivative compounds was carried out in screens in three human pancreatic cancer cell and one non-transformed human pancreatic epithelial cell line in three or more replicate experiments for each cell line using the WST tetrazolium salt reduction assays.
as §1

[3] = tested on: LXR ligand-binding domain; assay: TR-FRET assay of co-activator and co-repressor peptide recruitment; assay type: biochemical
Experimental: To elucidate mechanisms of inverse agonism by the novel ligands, TR-FRET experiments were conducted to determine the effects of 1E5 and 3A4 on the recruitment of NR co-activators and co-repressors. […] In addition to their functions as inverse agonists, extended treatments with 1E5 and 3A4 also destabilized or decreased LXR proteins.
as §1

[4] = tested on: genes involved in ferroptosis; assay: quantitative PCR of genes involved in ferroptosis; assay type: cell-based, human
Source text: Expression profiles of ferroptosis genes in RNAseq data following 1E5 treatment were also consistent with its pro-ferroptotic actions. […] Polyamines are amino-acid derived polycationic alkylamines that are required for the growth of cells. SAT1 catalyzes the acetylation of spermidine and spermine to form N-acetylspermidine and N-acetylspermine respectively. […] SAT1 induces ferroptosis by upregulating the peroxidation of PUFA arachidonic acid. Ceramides are sphingolipids consisting of sphingosine and fatty acid acyl chain. Cellular stress leads to upregulation of ceramide synthesis which mediate caspase-dependent apoptosis. Accumulation of ceramides/hexosylceramides in the mitochondria leads to the formation of channel like structures in the mitochondrial outer membrane which increases the permeability of pro-apoptotic proteins such as cytochrome c. ER stress is also known to activate de-novo synthesis of ceramides and induce apoptosis by increasing the flow of Ca ions and upregulating the unfolded protein stress response.

[5] = tested on: KPC tumor cells; assay: growth of KPC tumor cells from mouse model of PDAC; assay type: cell-based
Source text: The effects of the ligands and derivatives on the growth of PDAC cells were further validated by cell counting and clonogenic assays.

[6] = tested on: GLS1 and GOT2; assay: qPCR of genes involved in glutamine metabolism; assay type: cell-based, human; settings: PDAC cells
Source text: TCA cycle intermediates act as anaplerotic substrate for gluconeogenesis and lipogenesis. […] GOT2 converts glutamine-derived glutamate to alpha-KG. During this process oxaloacetate is converted to aspartate which is required to maintain redox homeostasis. Studies have shown that inhibition of GOT2 in PDAC promotes senescence.

[7] = tested on: PDAC cells; assay: pro-apoptotic caspase cleavage analysis; assay type: cell-based, human
Experimental: To determine if 1E5 and 3A4 can induce apoptosis, PDAC cells were treated with the LXR ligands and subjected to pro-apoptotic caspase cleavage analysis. […] Metabolomic profiling following treatments with the two ligands indicated the activation of two distinct cell death mechanisms. Ferroptosis is a non-apoptotic form of cell death which is characterized by accumulation of lipid peroxides by loss of glutathione peroxidase 4 (GPX4) activity. It can also be induced by accumulation of intracellular iron and depletion of reduced glutathione (GSH). GPX4 is an anti-oxidant enzyme involved in conversion of PUFA peroxides to PUFA alcohols. GSH is a critical cofactor of GPX4 and acts as a reducing agent to reduce the lipid peroxides. Therefore, direct inhibition of GPX4 activity or reduction in GSH levels trigger ferroptosis. The second mechanism of inducing ferroptosis is accumulation of polyunsaturated fatty acids (PUFAs) in cells. Studies have shown that PUFAs are the most susceptible lipids to peroxidation.
Accumulation of C18 ceramides in the mitochondria leads to the recruitment of auto phagosomes in mitochondria and induces LC3-ceramide dependent lethal mitophagy. […] Darkened circles indicate increases and the size of the circle corresponds to the significance of changes.

[8] = tested on: MDA-MB-231 cells; assay: breast cancer cell proliferation; assay type: cell-based
Source text: The inhibitory effects of LXR ligands in breast cancer cells have been shown previously. […] The observed decreases in LXR protein levels were not affected by proteasome inhibitor MG132.

Structure (SMILES): O=c1cc(-c2ccccc2)nc(Nc2cccc(C(F)(F)F)c2)[nH]1 [Compound 1E5, 6-phenyl-2-{[3-(trifluoromethyl)phenyl]amino}-3,4-dihydropyrimidin-4-one]
- LXR-LBD structure and dye dissociation with increasing temperature [1]: disrupted the LBD structure
- activity against non-transformed HPNE cells [2]: little activity
- co-activator peptide binding to LXR ligand-binding domain ([3]; co-activator (D22) peptide): did not affect co-activator peptide binding
- binding of NCOR and SMRT co-repressor peptides ([3]; co-repressor (NCOR and SMRT-ID2) peptides): increased the binding
- expression of GPX4 and other negative regulators of ferroptosis (STMN1, RRM2) [4]: decreased the expression
- expression of SAT1 [4]: increases the expression
- growth of KPC tumor cells [5]: blocked the growth
- expression of GLS1 and GOT2 [6]: downregulated the expression
- pro-apoptotic caspase cleavage [7]: did not
- proliferation of MDA-MB-231 cells [8]: inhibited
